Data as given in US9422293B2 (priority 2006, dated 2016).
Structures can show the parent of a compound that is named as a salt.

These compounds were tested against rat TRPV1 (Rattus norvegicus (Rat), UniProt O35433). Conditions: read-out: Rat IC50.
Chain of rat TRPV1 (O35433 whole entry): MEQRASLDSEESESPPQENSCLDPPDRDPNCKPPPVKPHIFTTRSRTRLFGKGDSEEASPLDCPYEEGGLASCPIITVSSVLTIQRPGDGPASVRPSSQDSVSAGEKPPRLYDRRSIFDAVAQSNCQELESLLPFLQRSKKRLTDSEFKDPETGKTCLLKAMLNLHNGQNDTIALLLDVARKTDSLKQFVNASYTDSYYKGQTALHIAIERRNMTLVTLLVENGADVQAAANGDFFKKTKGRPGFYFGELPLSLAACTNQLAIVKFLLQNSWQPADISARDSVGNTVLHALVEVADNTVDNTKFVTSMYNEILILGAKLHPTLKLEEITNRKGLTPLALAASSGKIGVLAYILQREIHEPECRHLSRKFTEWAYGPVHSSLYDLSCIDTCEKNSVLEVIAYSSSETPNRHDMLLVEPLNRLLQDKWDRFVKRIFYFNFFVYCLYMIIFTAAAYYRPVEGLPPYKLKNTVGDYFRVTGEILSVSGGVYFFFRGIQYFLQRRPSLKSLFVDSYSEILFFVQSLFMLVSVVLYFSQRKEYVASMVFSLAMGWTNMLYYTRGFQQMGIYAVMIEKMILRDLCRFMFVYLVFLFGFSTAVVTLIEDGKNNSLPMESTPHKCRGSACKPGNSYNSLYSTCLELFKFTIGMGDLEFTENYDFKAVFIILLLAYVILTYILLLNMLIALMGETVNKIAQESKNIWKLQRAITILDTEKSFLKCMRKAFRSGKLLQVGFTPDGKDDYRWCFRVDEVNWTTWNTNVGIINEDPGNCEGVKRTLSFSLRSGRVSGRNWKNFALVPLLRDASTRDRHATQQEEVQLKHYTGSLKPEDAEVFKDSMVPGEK
Procedure: Biological Testing: Functional Assay: Block of Capsaicin-Induced Ca^2+ Influx A. Human Assay
Cells were passaged frequently, every 3-5 days, to avoid overgrowth, depletion of essential medium components, or acidic medium exposure. Cells were passaged using a brief wash in 0.05% trypsin with 1 mM EDTA, followed by dissociation in divalent-free phosphate-buffered saline (Hyclone #SH30028.02). […] The assay buffer was composed of 130 mM NaCl, 2 mM KCl, 2 mM MgCl2, 10 mM HEPES, 5 mM glucose, and either 2 mM or 20 μM CaCl2. On the day of the experiment, the culture medium was replaced with 2 mM calcium assay buffer using an automated plate washer (ELx405; Biotek, VT). […] After loading the cells, the dye solution was replaced with 50 μL/well of 20 μM calcium assay buffer using the ELx405 plate washer. Test compounds (50 μL/well) were added to the plate and incubated for 30 min. […] The IC50 values were determined. […] The contents of the wells were mixed 3 times (40 μL mix volume) immediately after the additions were made. Concentration dependence of block was determined by exposing each well of cells in duplicate rows of a 96 well plate to a serial dilution of test compound. The concentration series usually started at 10 μM with a three-fold serial decrement in concentration. The magnitude of the capsaicin response was determined by measuring the change in fluo3 fluorescence before and 100 seconds after the addition of the agonist. Data were analyzed using a non-linear regression program (Origin; OriginLab, MA). IC50 values shown are the average (mean) of the results obtained.
The assay was performed as described above, using HEK293 cells transfected with rat TRPV1 (rTRPV1/HEK293). […] IC50 values shown are the average (mean) of the results obtained.

Going from O=S(=O)(c1ccc(Nc2nc(OC3CCOCC3)nc3c2CCN(c2ncccc2C(F)(F)F)CC3)cc1)N1CCCC1 [Example 335, N-[4-(Pyrrolidin-1-ylsulfonyl)phenyl]-2-(tetrahydro-2H-pyran-4-yloxy)-7-[3-(trifluoromethyl)pyridin-2-yl]-6,7,8,9-tetrahydro-5H-pyrimido[4,5-d]azepin-4-amine] to CC(Oc1nc2c(c(Nc3ccc(S(=O)(=O)N4CCCC4)cc3)n1)CCN(c1ncccc1C(F)(F)F)CC2)C1CCCCC1 (stereo not drawn) [Example 320, 2-[(1-Cyclohexylethyl)oxy]l-N-[4-(pyrrolidin-1-ylsulfonyl)phenyl]-7-[3-(trifluoromethyl)pyridin-2-yl]-6,7,8,9-tetrahydro-5H-pyrimido[4,5-d]azepin-4-amine], the IC50 falls from 0.15 µM to 0.02 µM (7.5-fold).

CN1CCCc2ccc(Nc3nc(N4CCCCC4)nc4c3CCN(c3ncccc3C(F)(F)F)CC4)cc21 [Example 163, (1-Methyl-1,2,3,4-tetrahydro-quinolin-7-yl)-[2-piperidin-1-yl-7-(3-trifluoromethyl-pyridin-2-yl)-6,7,8,9-tetrahydro-5H-pyrimido[4,5-d]azepin-4-yl]-amine hydrochloride salt] and CC(C)(C)c1ccc(Nc2nc(N3CCCCC3)nc3c2CCN(c2ncccc2C(F)(F)F)CC3)cc1N [Example 200, 4-(1,1-Dimethylethyl)-N1-{2-piperidin-1-yl-7-[3-(trifluoromethyl)pyridin-2-yl]-6,7,8,9-tetrahydro-5H-pyrimido[4,5-d]azepin-4-yl}benzene-1,3-diamine] are within 1.5-fold of each other in IC50: 0.12 µM for the first, 0.11 µM for the second.

CC(C)c1nc2c(c(Nc3ccc(C(C)(C)C)cc3)n1)CCN(c1ncccc1N)CC2 [Example 284, 7-(3-Aminopyridin-2-yl)-N-[4-(1,1-dimethylethyl)phenyl]-2-(1-methylethyl)-6,7,8,9-tetrahydro-5H-pyrimido[4,5-d]azepin-4-amine] and CC(C)c1nc2c(c(Nc3ccc(C(C)(C)CO)cc3)n1)CCN(c1ncccc1C(F)(F)F)CC2 [Example 181, 2-Methyl-2-[4-({2-(1-methylethyl)-7-[3-(trifluoromethyl)pyridin-2-yl]-6,7,8,9-tetrahydro-5H-pyrimido[4,5-d]azepin-4-yl}amino)phenyl]propan-1-ol] are within 1.5-fold of each other in IC50: 0.55 µM for the first, 0.82 µM for the second.

FC(F)(F)c1ccc(Nc2nc(NC3CC3)nc3c2CCN(c2ncccc2C(F)(F)F)CC3)cc1 [Example 55B, N^2-Cyclopropyl-N^4-(4-trifluoromethyl-phenyl)-7-(3-trifluoromethyl-pyridin-2-yl)-6,7,8,9-tetrahydro-5H-pyrimido[4,5-d]azepine-2,4-diamine trifluoroacetic acid salt] and COCCNc1nc2c(c(Nc3ccc(C(F)(F)F)cc3)n1)CCN(c1ncccc1C(F)(F)F)CC2 [Example 213, N^2-[2-(Methyloxy)ethyl]-N^4-[4-(trifluoromethyl)phenyl]-7-[3-(trifluoromethyl)pyridin-2-yl]-6,7,8,9-tetrahydro-5H-pyrimido[4,5-d]azepine-2,4-diamine trifluoroacetic acid salt] are within 1.5-fold of each other in IC50: 0.15 µM for the first, 0.11 µM for the second.

Compared with CC(C)Sc1nc2c(c(Nc3ccc(C(F)(F)F)cc3)n1)CCN(c1ncccc1C(F)(F)F)CC2 [Example 355, 2-[(1-Methylethyl)sulfanyl]-N-[4-(trifluoromethyl)phenyl]-7-[3-(trifluoromethyl)pyridin-2-yl]-6,7,8,9-tetrahydro-5H-pyrimido[4,5-d]azepin-4-amine], Cc1cc(C(F)(F)F)ccc1Nc1nc(SC(C)C)nc2c1CCN(c1ncccc1C(F)(F)F)CC2 [Example 366, 2-[(1-Methylethyl)sulfanyl]-N-[2-methyl-4-(trifluoromethyl)phenyl]-7-[3-(trifluoromethyl)pyridin-2-yl]-6,7,8,9-tetrahydro-5H-pyrimido[4,5-d]azepin-4-amine] is 2.2-fold higher in IC50: 0.06 µM for the first, 0.13 µM for the second.

First: FC(F)(F)c1ccc(Nc2nc(N3CCC3)nc3c2CCN(c2ncccc2C(F)(F)F)CC3)nc1 [Example 197, 2-Azetidin-1-yl-7-[3-(trifluoromethyl)pyridin-2-yl]-N-[5-(trifluoromethyl)pyridin-2-yl]-6,7,8,9-tetrahydro-5H-pyrimido[4,5-d]azepin-4-amine trifluoroacetic acid salt]
Second: OC[C@@H]1CCCN1c1nc2c(c(Nc3ccc(C(F)(F)F)cn3)n1)CCN(c1ncccc1C(F)(F)F)CC2 [Example 262, [(2S)-1-(7-[3-(Trifluoromethyl)pyridin-2-yl]-4-{[5-(trifluoromethyl)pyridin-2-yl]amino}-6,7,8,9-tetrahydro-5H-pyrimido[4,5-d]azepin-2-yl)pyrrolidin-2-yl]methanol hydrochloride salt]
The IC50 of the first is 11-fold lower: 0.15 µM for the first, 1.64 µM for the second.

Compared with FC(F)(F)c1ccc(Nc2ncnc3c2CCN(c2ncccc2Cl)CC3)cc1 [Example 30, [7-(3-Chloro-pyridin-2-yl)-6,7,8,9-tetrahydro-5H-pyrimido[4,5-d]azepin-4-yl]-(4-trifluoromethyl-phenyl)-amine], COCCN(C)c1nc2c(c(Nc3ccc(C(F)(F)F)cc3)n1)CCN(c1ncccc1C(F)(F)F)CC2 [Example 93B, N^2-(2-Methoxy-ethyl)-N^2-methyl-N^4-(4-trifluoromethyl-phenyl)-7-(3-trifluoromethyl-pyridin-2-yl)-6,7,8,9-tetrahydro-5H-pyrimido[4,5-d]azepine-2,4-diamine trifluoroacetic acid salt] is 35-fold lower in IC50: 1.3 µM for the first, 0.037 µM for the second. The second is the more potent here.

FC1(F)CCN(c2nc3c(c(Nc4ccc(C(F)(F)F)cc4)n2)CCN(c2ncccc2C(F)(F)F)CC3)C1 [Example 243, 2-(3,3-Difluoropyrrolidin-1-yl)-N-[4-(trifluoromethyl)phenyl]-7-[3-(trifluoromethyl)pyridin-2-yl]-6,7,8,9-tetrahydro-5H-pyrimido[4,5-d]azepin-4-amine trifluoroacetic acid salt] and OC1CCN(c2nc3c(c(Nc4ccc(C(F)(F)F)cc4)n2)CCN(c2ncccc2C(F)(F)F)CC3)CC1 [Example 59B, 1-[4-(4-Trifluoromethyl-phenylamino)-7-(3-trifluoromethyl-pyridin-2-yl)-6,7,8,9-tetrahydro-5H-pyrimido[4,5-d]azepin-2-yl]-piperidin-4-ol trifluoroacetic acid salt] are within 1.5-fold of each other in IC50: 0.45 µM for the first, 0.38 µM for the second.

Going from O=S(=O)(c1ccc(Nc2nc(SCc3ccccc3)nc3c2CCN(c2ncccc2C(F)(F)F)CC3)cc1)C(F)(F)F [Example 359, 2-[(Phenylmethyl)sulfanyl]-7-[3-(trifluoromethyl)pyridin-2-yl]-N-{4-[(trifluoromethyl)sulfonyl]phenyl}-6,7,8,9-tetrahydro-5H-pyrimido[4,5-d]azepin-4-amine] to FC(F)(F)c1ccc(Nc2nc(OC3CCCC3)nc3c2CCN(c2ncccc2C(F)(F)F)CC3)cc1 [Example 337, 2-(Cyclopentyloxy)-N-[4-(trifluoromethyl)phenyl]-7-[3-(trifluoromethyl)pyridin-2-yl]-6,7,8,9-tetrahydro-5H-pyrimido[4,5-d]azepin-4-amine], the IC50 falls from 0.32 µM to 0.17 µM (1.9-fold). The second is the more potent here.

CC(C)(C)c1ccc(Nc2nc(N[C@@H]3CCOC3)nc3c2CCN(c2ncccc2C(F)(F)F)CC3)cc1 [Example 264, N^4-[4-(1,1-Dimethylethyl)phenyl]-N^2-[(3R)-tetrahydrofuran-3-yl]-7-[3-(trifluoromethyl)pyridin-2-yl]-6,7,8,9-tetrahydro-5H-pyrimido[4,5-d]azepine-2,4-diamine] was tested, and the IC50 was 1.3 µM.
